Test results reported in the NIST ThermoML archive (doi:10.1016/j.jct.2006.01.013).

Conditions: 101.33 kPa, Liquid

CCCCCC[n+]1ccn(C)c1.O=S(=O)([N-]S(=O)(=O)C(F)(F)F)C(F)(F)F
Conditions | mass density [kg/m3]
290.95 K | 1378.1
292.95 K | 1376.3
294.95 K | 1374.4
296.95 K | 1372.6
299 K | 1370.8
301 K | 1369
303 K | 1367.2
305.05 K | 1365.3
307.05 K | 1363.5
